Earlier results, collected in patent EP0188214A2, “Novel growth hormone-releasing peptides and method of treating mammals therewith” (The Administrators of The Tulane University Educational Fund, priority 1985, dated 1986).
Ends that are not written are not given here.

Test system: rat anterior pituitary
Settings: rat anterior pituitary in vitro and in vivo; literature

Row | Substance | growth hormone(GH)-releasing activity
1 | hp GRF(1-29)-NH2: synthetic amidated fragment of the natural hp GRF (YADAIFTNSYRKVLGQLSARKLLQDIMSR-NH2; UniProt P01286 32-60, looked up, fragment) | full intrinsic biological activity
2 | hpGRF: growth hormone-releasing factors (GRF) of human pancreatic islet tumor origin (YADAIFTNSYRKVLGQLSARKLLQDIMSRQQGESNQERGARARL; ends and bridges not checked; UniProt P01286 32-75, looked up) | possess growh hormone(GH)-releasing activity
